For 72 molecules, Kd results are on record in US20260373266A1, “PROTEIN DEGRADERS AND USES THEREOF” (KYMERA THERAPEUTICS, INC., priority 2022, published 2026).

A value given as a limit tells only on which side of the number the result lay.

In the first experiment the target is T1, DCAF1 WD40 domain (residues 1077-1390) (Homo sapiens, UniProt Q9Y4B6).
T1 construct: DCAF1 WD40 domain (residues 1077-1390)
T1 sequence (Q9Y4B6 1077-1390): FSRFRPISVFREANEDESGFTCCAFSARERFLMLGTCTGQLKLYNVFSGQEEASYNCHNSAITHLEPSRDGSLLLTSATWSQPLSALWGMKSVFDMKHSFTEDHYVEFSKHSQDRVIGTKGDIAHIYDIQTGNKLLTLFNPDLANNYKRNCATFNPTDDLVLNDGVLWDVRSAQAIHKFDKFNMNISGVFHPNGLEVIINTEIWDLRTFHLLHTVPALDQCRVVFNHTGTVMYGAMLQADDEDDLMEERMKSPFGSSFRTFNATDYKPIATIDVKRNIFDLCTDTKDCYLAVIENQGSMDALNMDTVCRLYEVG
The experiment can be described thus: DCAF1 binding assay by SPR (Biacore 8K+), DCAF1-3 KD. The settings on record: 25 °C, read-out: DCAF1-3 SPR (KD).
Consider `C=CC(=O)N1CCc2[nH]nc(C(=O)N[C@@H](CC(N)=O)c3cccc(Cl)c3)c2C1` [I-300], for which the Kd was over 200 µM.
The same measure, in the same setting: in the case of `Oc1ccc(N2CCC[C@@H]3[C@H]2CCN3c2cc(N3CC4CC(C4)C3)ccn2)cc1` [I-709] it was 10 to 100 µM; in that of `Fc1cccc(N2CCCC3(C2)CN(c2cc(N4CCOCC4)ccn2)C3)c1` [I-221], over 200 µM.
Turning to `Fc1cccc([C@@H]2CCC[C@@H](Nc3cc(N4CCOCC4)ccn3)C2)c1` [I-184], the Kd is over 200 µM.
Same read-out and setting: in the case of `Fc1cccc(N2CCCC(N(c3cc(N4CCOCC4)ccn3)C(F)(F)F)C2)c1` (stereo not drawn) [I-305] it was over 200 µM.
Still for that read-out and setting: the figure for `NC(=O)C[C@H](NC(=O)c1nc(N)sc1-c1ccccc1F)c1cccc(Cl)c1` [I-565] is 100 to 200 µM; for `FC[C@@]1(Nc2cc(N3CCOCC3)ccn2)CCCN(c2cccc(F)c2)C1` [I-277] it is over 200 µM.
Same read-out and setting: the figure for `NC(=O)C[C@H](NC(=O)[C@H]1C[C@@](O)(c2ccccc2)C1)c1cccc(Cl)c1` [I-445] is over 200 µM.
Turning to `NC(=O)C[C@H](NC(=O)c1cn[nH]c1-c1ccc(C(N)=O)cc1)c1cccc(Cl)c1` [I-351], the Kd fell in the range of 10 to 100 µM.
Same read-out and setting: in the case of `Cc1c(F)ccc(F)c1-c1c(C(=O)N[C@@H](CC(N)=O)c2cccc(Cl)c2)c[nH]c1C(=O)c1cccc(C(C)C)c1` [I-739] it was under 10 µM; in that of `Fc1cccc(N2CCC[C@@H](Nc3cc(N4CC5CC(C5)C4)ccn3)C2)c1` [I-576], under 10 µM.
For `COCCN1CCN(c2ccnc(N[C@@H]3CCCN(c4cccc(F)c4)C3)c2)CC1` [I-61], the Kd lay in the range of 10 to 100 µM.
The same measure, in the same setting: the figure for `O=C(N[C@H](c1cccc(Cl)c1)[C@H]1CCNC1=O)c1c[nH]nc1-c1ccccc1F` [I-192] is over 200 µM; for `C=CC(=O)NCCC1CCCN(c2ccnc(N[C@@H]3CCCN(c4cccc(F)c4)C3)c2)C1` (stereo partly drawn) [I-664] it is 10 to 100 µM; for `NC(=O)C[C@H](NC(=O)c1c[nH]cc1-c1ccccc1F)c1cccc(Cl)c1` [I-90] it is under 10 µM.
Consider `Fc1cccc(N2CCC[C@@H](Nc3cc(C4CCCCC4)ccn3)C2)c1` [I-91], for which the Kd is over 200 µM.
The same measure, in the same setting: in the case of `NC(=O)C[C@H](NC(=O)c1cn[nH]c1-c1ccccc1F)c1ccccc1C(N)=O` [I-352] it was over 200 µM; in that of `Cc1c(F)ccc(F)c1-c1[nH]ncc1C(=O)N[C@H](c1cccc(Cl)c1)[C@H]1CCOC1` [I-968], 10 to 100 µM; in that of `Cc1sc2c(c1C)C(c1ccc(Cl)cc1)=N[C@@H](CC(=O)NCCOCCOCCOCCOCCCc1ccc(C(=O)c3c(-c4c(F)ccc(F)c4C)c(C(=O)N[C@@H](CS(C)(=O)=O)c4cccc(Cl)c4)cn3C)cc1)c1nnc(C)n1-2` [I-915], under 10 µM.
In the case of `NC(=O)C[C@H](NC(=O)c1[nH]nc(CN2CCOCC2)c1-c1ccccc1F)c1cccc(Cl)c1` [I-178], the Kd is over 200 µM.
Still for that read-out and setting: in the case of `Cc1sc2c(c1C)C(c1ccc(Cl)cc1)=N[C@@H](CC(=O)NCCOCCOCCOCCOCCOCC(=O)c1[nH]cc(C(=O)N[C@@H](CC(=O)N(C)C)c3cccc(Cl)c3)c1-c1c(F)ccc(F)c1C)c1nnc(C)n1-2` [I-911] it was under 10 µM; in that of `O[C@@H](c1cccc(N2CCC[C@@H](Nc3cc(N4CCOCC4)ccn3)C2)c1)C(F)(F)F` [I-772], 10 to 100 µM.
For `c1ccc2c(N3CCC[C@@H](Nc4cncc(N5CCOCC5)c4)C3)nccc2c1` [I-364], the Kd was in the range of 10 to 100 µM.
On the same count and under the same terms, the figure for `NC(=O)C[C@H](NC(=O)c1cn[nH]c1-c1cc(CC(F)F)ccc1F)c1cccc(Cl)c1` [I-251] is over 200 µM; for `Cc1c(F)ccc(F)c1-c1[nH]ncc1C(=O)N[C@@H](CC(=O)N1CCOCC1)c1cccc(Cl)c1` [I-842] it is under 10 µM.
Turning to `NC(=O)C[C@H](NC(=O)c1c[nH]nc1-c1cccc2nc[nH]c12)c1cccc(Cl)c1` [I-355], the Kd was in the range of 10 to 100 µM.
For `C[n+]1ccc(N2CCOCC2)cc1N[C@@H]1C[C@@H](O)CN(c2cccc(F)c2)C1` [I-520], the dissociation constant (Kd) is over 200 µM.
Still for that read-out and setting: the figure for `Cc1c(F)ccc(F)c1-c1c(C(=O)N[C@@H](CC(N)=O)c2cccc(Cl)c2)cn(C)c1C(=O)c1ccc(OCCOCCOCCOCCOCCN)cc1` [I-1017] is under 10 µM; for `CSc1ccc(N2CCC[C@@H](Nc3cc(N4CCOCC4)ccn3)C2)c(Cl)c1` [I-857] it is over 200 µM; for `Cc1sc2c(c1C)C(c1ccc(Cl)cc1)=N[C@@H](CC(=O)NCCOCCOCCOCCOCCn1ncc(C(=O)N[C@@H](CC(N)=O)c3cccc(Cl)c3)c1-c1ccccc1F)c1nnc(C)n1-2` [I-491] it is over 200 µM.
Take `CC(C)CNc1ccc(N2CCC[C@@H](Nc3cc(N4CCOCC4)ccn3)C2)cc1` [I-693]: the Kd fell in the range of 10 to 100 µM.
Same read-out and setting: the figure for `C[C@H](C(N)=O)[C@H](NC(=O)c1c[nH]nc1-c1ccccc1F)c1cccc(Cl)c1` [I-212] is over 200 µM; for `Fc1cccc(N2CCC[C@@H](Nc3cnnc(N4CCOCC4)c3)C2)c1` [I-381] it is over 200 µM.
In the case of `c1cnc2cc(N3CCC[C@@H](Nc4nccc(N5CCOCC5)n4)C3)ccc2c1` [I-45], the Kd was in the range of 10 to 100 µM.
Same read-out and setting: in the case of `Cc1c(F)ccc(F)c1-c1[nH]ncc1C(=O)N[C@@H](CC(N)=O)c1cccc(Cl)c1` [I-601] it was under 10 µM; in that of `Fc1ccc(N2CCC[C@@H](Nc3cc(N4CCOCC4)ncn3)C2)cc1` [I-7], 100 to 200 µM.
As for `NC(=O)C[C@H](NC(=O)c1cn(Cc2ccccc2)nc1-c1ccccc1F)c1cccc(Cl)c1` [I-495], the Kd is over 200 µM.
Regarding `NC(=O)C[C@H](NC(=O)c1c[nH]nc1-c1cc(F)ccc1F)c1cccc(Cl)c1` [I-513], the Kd is under 10 µM.
Regarding `Fc1cccc(N[C@@H]2CCCN(c3cc(N4CCCCC4)ccn3)C2)c1` [I-645], the dissociation constant Kd is over 200 µM.
The same measure, in the same setting: the figure for `NC(=O)c1ccc(N2CCC[C@@H](Nc3cc(N4CCOCC4)ccn3)C2)cc1` [I-769] is over 200 µM; for `OCc1cnc(N2CCOCC2)cc1N[C@@H]1CCCN(c2cccc(F)c2)C1` [I-410] it is over 200 µM.
The same measure, in the same setting: in the case of `NCCOCCOCCOCCOCCC1CCN(c2ccnc(N3CC[C@@H]4[C@H]3CCCN4c3cccc(F)c3)c2)CC1` [I-650] it was over 200 µM.
Still for that read-out and setting: in the case of `NC(=O)CC1(NC(=O)c2cn[nH]c2-c2ccccc2F)CCCc2c(Cl)cccc21` (stereo not drawn) [I-562] it was over 200 µM.
Take `C=CC(=O)N1CCC(c2[nH]ncc2C(=O)N[C@H](CC(N)=O)c2cccc(Cl)c2)CC1` [I-535]: the Kd lay in the range of 100 to 200 µM.
Same read-out and setting: in the case of `C[C@H]1CC[C@H](c2[nH]ncc2C(=O)N[C@@H](CC(N)=O)c2cccc(Cl)c2)CC1` [I-741] it was under 10 µM; in that of `Cc1c(F)ccc(F)c1-c1c(C(=O)N[C@@H](CC(N)=O)c2cccc(Cl)c2)c[nH]c1C(=O)c1ccc(CCCOCCOCCOCCOCCOCCN)cc1` [I-805], under 10 µM; in that of `N#Cc1nccc(N2CCC[C@@H](Nc3cc(N4CCOCC4)ccn3)C2)n1` [I-414], over 200 µM.
On the same count and under the same terms, in the case of `Fc1cccc(N2CCC[C@H]3[C@@H]2CCN3c2cc(N3CCCCC3)ccn2)c1` [I-580] it was 100 to 200 µM; in that of `COCCOCCOCCC(c1cc(N2CC3CCC(C3)C2)ccn1)[C@@H]1CCCN(c2cccc(F)c2)C1` (stereo partly drawn) [I-615], under 10 µM; in that of `NS(=O)(=O)c1nc(N2CCC[C@@H](Nc3cc(N4CCOCC4)ccn3)C2)cs1` [I-413], over 200 µM.
In the case of `CCNC(=O)C[C@H](NC(=O)c1cn[nH]c1-c1ccccc1F)c1cccc(Cl)c1` [I-83], the Kd was in the range of 10 to 100 µM.
Turning to `N#Cc1ccccc1-c1[nH]ncc1C(=O)N[C@@H](CC(N)=O)c1cccc(Cl)c1` [I-338], the Kd is under 10 µM.
As to `c1ccc(N2CCC[C@@H](Nc3cc(N4CCOCC4)ncn3)C2)nc1` [I-11], the Kd is over 200 µM.
Take `Fc1cccc(N2CCC[C@@H]3CN(c4cc(N5CCCCC5)ccn4)C[C@@H]32)c1` [I-668]: the Kd fell in the range of 10 to 100 µM.
Same read-out and setting: in the case of `OC[C@@H]1[C@H](Nc2cc(N3CCOCC3)ccn2)CCCN1c1cccc(F)c1` [I-279] it was over 200 µM; in that of `O=S(=O)(c1cc(N2CCOCC2)ccn1)C1CCCN(c2cccc(F)c2)C1` (stereo not drawn) [I-264], over 200 µM; in that of `C=CC(=O)NC1CC2(CCN(c3ccnc(N[C@@H]4CCCN(c5cccc(F)c5)C4)c3)CC2)C1` [I-652], under 10 µM.
The same measure, in the same setting: the figure for `Fc1cccc(N2CCCC(C3(c4cc(N5CCOCC5)ccn4)CC3(F)F)C2)c1` (stereo not drawn) [I-261] is over 200 µM.
On the same count and under the same terms, the figure for `C=CC(=O)NCCCCC1CCN(c2ccnc(N[C@@H]3CCCN(c4cccc(F)c4)C3)c2)CC1` [I-756] is 10 to 100 µM.
In the case of `NCCOCCOCCOCCOCCCc1ccc(C(=O)c2[nH]cc(C(=O)N[C@@H](CC(N)=O)c3cccc(Cl)c3)c2-c2c(F)ccc(F)c2F)cc1` [I-791], the Kd was under 10 µM.
For `C[C@H]1CC[C@@H](c2[nH]ncc2C(=O)N[C@@H](CC(N)=O)c2cccc(Cl)c2)CC1` [I-742], the Kd was under 10 µM.
Regarding `Fc1cccc(N2CCNC(Cc3cc(N4CCCCC4)ccn3)C2)c1` (stereo not drawn) [I-743], the Kd is over 200 µM.
The same measure, in the same setting: in the case of `Fc1cccc(N2CCC3CCCc4cnc(N5CCOCC5)cc4N[C@H]3C2)c1` (stereo partly drawn) [I-226] it was over 200 µM.
For the molecule `CN(C)C(=O)c1cccnc1N1CCC[C@@H](Nc2cc(N3CCOCC3)ccn2)C1` [I-784], the Kd was over 200 µM.
As to `CCCCN1CCN(c2cc(N[C@@H]3CCCN(c4cccc(F)c4)C3)ncn2)CC1` [I-377], the Kd was over 200 µM.
The same measure, in the same setting: the figure for `NC(=O)[C@H]1CCN(C(=O)c2c[nH]nc2-c2ccccc2F)[C@@H]1c1cccc(Cl)c1` [I-203] is over 200 µM; for `NC(=O)C[C@H](NC(=O)c1cnn(Cc2cncs2)c1-c1ccccc1F)c1cccc(Cl)c1` [I-167] it is over 200 µM.
On to `Fc1cccc(N2CCC[C@@H](N3CCc4c(N5CCOCC5)ccnc43)C2)c1` [I-196], for which the Kd is under 10 µM.
Turning to `Fc1cccc(N2CCCC(Nc3nccc(N4CCCCC4)n3)C2)c1` (stereo not drawn) [I-27], the Kd fell in the range of 100 to 200 µM.
Same read-out and setting: the figure for `NC(=O)C[C@H](NC(=O)c1[nH]ccc1-c1ccccc1F)c1cccc(Cl)c1` [I-114] is 10 to 100 µM; for `Fc1cccc(N2CCC[C@@H](Nc3ccnc(N4CCOCC4)c3)C2)c1` [I-18] it is over 200 µM.

Staying with this experiment, now noted: DCAF1-3 SPR (KD), 25 °C.
For `Fc1cccc(N2CCC[C@@H]3[C@H]2CCN3c2cc(N3CCCCC3)ccn2)c1` [I-579, (3aR,7aR)-4-(3-fluorophenyl)-1-(4-(piperidin-1-yl)pyridin-2-yl)octahydro-1H-pyrrolo[3,2-b]pyridine], the Kd was under 10 µM.

By Kd is commonly meant the equilibrium constant for the complex coming apart.
